Drawing on ChEMBL document CHEMBL5528002, “Identification of selective 5-LOX and FLAP inhibitors as novel anti-inflammatory agents by ligand-based virtual screening” (Eur J Med Chem, 2024), this text covers Activity and inhibition for two molecules.

The structures appear in SMILES notation.

Data set [1] deals with Macrophage cell line. Description: Effect on lipid mediator formation in human M1-like phenotype MDM cells by measuring 14-HDHA formation at 10 uM pre-incubated for 15 mins followed by SACM stimulation and measured after 90 mins by UPLC-MS/MS analysis relative to control. Conditions: time 105 min, 1.75 h. It counts as functional.
For data set [2], the system named is Macrophage cell line. Description: Effect on lipid mediator formation in human M2-like phenotype MDM cells by measuring 15-HETE formation at 10 uM pre-incubated for 15 mins followed by SACM stimulation and measured after 90 mins by UPLC-MS/MS analysis (reference value: 18426 +/- 5001 pg/ml). It counts as functional. Conditions: time 105 min, 1.75 h.
Data set [3] deals with Macrophage. Description: Cytotoxicity against human MDM cells assessed as reduction in cell viability at 10 uM incubated for 24 hrs by MTT assay. It counts as toxicity, cell-based. Conditions: macrophage cell line. A general note: Tetrazolium assays rely on reduction of a dye to a coloured formazan, in cell work by metabolically active cells.
The test system of data set [4] is Macrophage cell line. Description: Effect on lipid mediator formation in human M1-like phenotype MDM cells by measuring 5S,6R-diHETE formation at 10 uM pre-incubated for 15 mins followed by SACM stimulation and measured after 90 mins by UPLC-MS/MS analysis (reference value: 226 +/- 78 pg/ml). It counts as functional. The note with it: time 105 min, 1.75 h.
Data set [5] concerns Macrophage cell line. Briefly: Effect on lipid mediator formation in human M1-like phenotype MDM cells by measuring 15-HETE formation at 10 uM pre-incubated for 15 mins followed by SACM stimulation and measured after 90 mins by UPLC-MS/MS analysis relative to control. It counts as functional. The note with it: time 105 min, 1.75 h.
The test system of data set [6] is Macrophage cell line. Description: Effect on lipid mediator formation in human M2-like phenotype MDM cells by measuring 17-HDHA formation at 10 uM pre-incubated for 15 mins followed by SACM stimulation and measured after 90 mins by UPLC-MS/MS analysis (reference value: 4702 +/- 885 pg/ml). It counts as functional. The note with it: time 105 min, 1.75 h.
Data set [7] deals with Macrophage cell line. Description: Effect on lipid mediator formation in human M2-like phenotype MDM cells by measuring EPA formation at 10 uM pre-incubated for 15 mins followed by SACM stimulation and measured after 90 mins by UPLC-MS/MS analysis relative to control. It counts as functional. Conditions: time 105 min, 1.75 h.
The subject of data set [8] is Macrophage cell line. Briefly: Effect on lipid mediator formation in human M2-like phenotype MDM cells by measuring 12-HETE formation at 10 uM pre-incubated for 15 mins followed by SACM stimulation and measured after 90 mins by UPLC-MS/MS analysis relative to control. It counts as functional. The note with it: time 105 min, 1.75 h.
The subject of data set [9] is Macrophage cell line. Description: Effect on lipid mediator formation in human M1-like phenotype MDM cells by measuring PGE2 formation at 10 uM pre-incubated for 15 mins followed by SACM stimulation and measured after 90 mins by UPLC-MS/MS analysis relative to control. It counts as functional. The note with it: time 105 min, 1.75 h.
The subject of data set [10] is Macrophage cell line. Description: Effect on lipid mediator formation in human M1-like phenotype MDM cells by measuring PGF2alpha formation at 10 uM pre-incubated for 15 mins followed by SACM stimulation and measured after 90 mins by UPLC-MS/MS analysis (reference value: 471 +/- 100 pg/ml). It counts as functional. The note with it: time 105 min, 1.75 h.
Data set [11] concerns Macrophage cell line. Description: Effect on lipid mediator formation in human M1-like phenotype MDM cells by measuring 15-HEPE formation at 10 uM pre-incubated for 15 mins followed by SACM stimulation and measured after 90 mins by UPLC-MS/MS analysis (reference value: 57 +/- 10 pg/ml). Conditions: time 105 min, 1.75 h. It counts as functional.
For data set [12], the system named is Macrophage cell line. Description: Effect on lipid mediator formation in human M1-like phenotype MDM cells by measuring 15-HEPE formation at 10 uM pre-incubated for 15 mins followed by SACM stimulation and measured after 90 mins by UPLC-MS/MS analysis relative to control. It counts as functional. Conditions: time 105 min, 1.75 h.
Data set [13] concerns Macrophage cell line. Description: Effect on lipid mediator formation in human M2-like phenotype MDM cells by measuring LTB4 formation at 10 uM pre-incubated for 15 mins followed by SACM stimulation and measured after 90 mins by UPLC-MS/MS analysis relative to control. The note with it: time 105 min, 1.75 h. It counts as functional.
Data set [14] deals with T1, Bifunctional epoxide hydrolase 2 (Homo sapiens) (UniProt P34913).
T1 sequence (whole entry): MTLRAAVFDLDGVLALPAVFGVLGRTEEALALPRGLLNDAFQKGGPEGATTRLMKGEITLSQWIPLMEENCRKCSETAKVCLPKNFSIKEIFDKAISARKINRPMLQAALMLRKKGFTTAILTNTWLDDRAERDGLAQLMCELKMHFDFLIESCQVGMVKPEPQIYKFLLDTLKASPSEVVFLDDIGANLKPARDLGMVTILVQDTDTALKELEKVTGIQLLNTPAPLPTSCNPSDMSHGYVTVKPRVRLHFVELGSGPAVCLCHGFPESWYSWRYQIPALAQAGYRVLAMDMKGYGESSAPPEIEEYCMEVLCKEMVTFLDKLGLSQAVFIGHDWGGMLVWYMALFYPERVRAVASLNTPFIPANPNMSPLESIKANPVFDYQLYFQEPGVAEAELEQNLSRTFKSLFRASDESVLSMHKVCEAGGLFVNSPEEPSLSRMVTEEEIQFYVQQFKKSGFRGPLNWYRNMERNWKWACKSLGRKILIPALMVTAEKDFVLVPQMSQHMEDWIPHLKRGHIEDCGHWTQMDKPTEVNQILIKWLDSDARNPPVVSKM
Briefly: Inhibition of human sEH at 10 uM relative to control.

Data set [15] deals with Macrophage cell line. Briefly: Effect on lipid mediator formation in human M1-like phenotype MDM cells by measuring PGD2 formation at 10 uM pre-incubated for 15 mins followed by SACM stimulation and measured after 90 mins by UPLC-MS/MS analysis (reference value: 46 +/- 15 pg/ml). The note with it: time 105 min, 1.75 h. It counts as functional.
Data set [16] has as its system Macrophage cell line. Description: Effect on lipid mediator formation in human M1-like phenotype MDM cells by measuring 12-HETE formation at 10 uM pre-incubated for 15 mins followed by SACM stimulation and measured after 90 mins by UPLC-MS/MS analysis relative to control. It counts as functional. Conditions: time 105 min, 1.75 h.
Data set [17] has as its system Macrophage cell line. Briefly: Effect on lipid mediator formation in human M2-like phenotype MDM cells by measuring RvD5 formation at 10 uM pre-incubated for 15 mins followed by SACM stimulation and measured after 90 mins by UPLC-MS/MS analysis (reference value: 344 +/- 92 pg/ml). It counts as functional. Conditions: time 105 min, 1.75 h.
The test system of data set [18] is Macrophage cell line. Description: Effect on lipid mediator formation in human M1-like phenotype MDM cells by measuring 7-HDHA formation at 10 uM pre-incubated for 15 mins followed by SACM stimulation and measured after 90 mins by UPLC-MS/MS analysis relative to control. It counts as functional. The note with it: time 105 min, 1.75 h.

The inhibition is how much of the control response was suppressed. For `Oc1ccc(CCC2CCC(c3ccc(O)cc3)CO2)cc1` (stereo unspecified), the Activity in [1] was 89%; in data set [2] it was 26605 pg/mL; in data set [3], “Non-Toxic”; in data set [4], 11 pg/mL; in data set [5] it was 85%; in data set [6] it was 6992 pg/mL. In addition, the Activity in data set [7] amounted to 119%; in [8], 122%; in [9], 69%; in [10], 331 pg/mL; in data set [11], 55 pg/mL; in data set [12] it was 97%. Also, the Activity in data set [13] is 14%; in data set [15] it was 40 pg/mL; in data set [16], 87%; in data set [17], 361 pg/mL; in data set [18] it was 38%. For the same molecule, in data set [14], the inhibition is more than 35%.
Turning to `COc1ccc(C2=C/C(=C/c3ccc(O)cc3O)C(=O)O2)cc1`, the Activity was 94% in data set [1]; 25017 pg/mL in [2]; “Non-Toxic” in data set [3]; 12 pg/mL in [4]; 90% in data set [5]; 8152 pg/mL in [6]. In addition, the Activity in [7] is 103%; in data set [8], 114%; in data set [9], 93%; in data set [10] it was 419 pg/mL; in data set [11], 55 pg/mL; in [12] it was 98%. The Activity in data set [13] was found to be 4%; in data set [15] it was 72 pg/mL; in data set [16], 87%; in data set [17], 575 pg/mL; in data set [18], 31%. The same molecule displayed an inhibition in data set [14] of more than 35%.
